# Patent US11279681B2, “3-alkyl bicyclic [4,5,0] hydroxamic acids as HDAC inhibitors” (Valo Health, Inc., priority 2015, dated 2022)
# Biological target: T1, HDAC6 (Homo sapiens, UniProt Q9UBN7)
# T1 sequence (Q9UBN7 1-1215): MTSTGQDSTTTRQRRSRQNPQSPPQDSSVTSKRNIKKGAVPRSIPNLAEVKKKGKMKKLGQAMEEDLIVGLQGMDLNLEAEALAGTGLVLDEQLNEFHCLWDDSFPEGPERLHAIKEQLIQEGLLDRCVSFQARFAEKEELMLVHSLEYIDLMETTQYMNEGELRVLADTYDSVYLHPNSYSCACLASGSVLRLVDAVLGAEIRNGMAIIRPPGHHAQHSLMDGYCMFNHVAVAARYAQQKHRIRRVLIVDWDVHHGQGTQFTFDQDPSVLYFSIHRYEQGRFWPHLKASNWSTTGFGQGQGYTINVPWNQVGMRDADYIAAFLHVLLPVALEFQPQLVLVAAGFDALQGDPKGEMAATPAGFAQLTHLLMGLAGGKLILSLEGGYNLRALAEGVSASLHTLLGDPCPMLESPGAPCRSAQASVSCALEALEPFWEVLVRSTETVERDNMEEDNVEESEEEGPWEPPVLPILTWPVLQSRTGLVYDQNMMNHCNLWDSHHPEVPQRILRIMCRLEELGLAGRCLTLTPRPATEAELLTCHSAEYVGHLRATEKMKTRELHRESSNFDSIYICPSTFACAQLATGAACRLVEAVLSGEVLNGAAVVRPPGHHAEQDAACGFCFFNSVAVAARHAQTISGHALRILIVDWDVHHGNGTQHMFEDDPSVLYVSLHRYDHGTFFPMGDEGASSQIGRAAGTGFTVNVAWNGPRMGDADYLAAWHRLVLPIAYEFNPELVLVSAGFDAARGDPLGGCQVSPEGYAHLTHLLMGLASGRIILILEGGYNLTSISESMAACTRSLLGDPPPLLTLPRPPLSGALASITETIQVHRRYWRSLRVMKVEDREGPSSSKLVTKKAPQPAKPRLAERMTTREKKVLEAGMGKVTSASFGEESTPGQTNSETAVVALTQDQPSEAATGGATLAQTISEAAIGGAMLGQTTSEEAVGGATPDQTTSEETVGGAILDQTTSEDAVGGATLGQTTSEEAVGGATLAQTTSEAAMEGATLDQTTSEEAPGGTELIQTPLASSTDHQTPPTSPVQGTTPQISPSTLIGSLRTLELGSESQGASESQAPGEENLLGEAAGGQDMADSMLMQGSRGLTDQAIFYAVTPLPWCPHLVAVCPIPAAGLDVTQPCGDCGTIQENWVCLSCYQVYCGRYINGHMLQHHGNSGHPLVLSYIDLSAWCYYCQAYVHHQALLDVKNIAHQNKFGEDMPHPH
# Assay: In vitro histone deacetylase assay: enzymatic HDAC6 electrophoretic mobility shift assay
# Type: biochemical
# Conditions: full length human recombinant HDAC6, 1 nM enzyme, 2 μM peptide substrate RHKK(Ac)-NH2, 25° C.; read-out: Inhibitory Concentration (IC50) Values for Representative Compounds against HDAC6, Activity Range
row,Structure (SMILES),IC50 [nM]
1,CC(C)[C@H]1COc2cc(C(=O)NO)ccc2CN1C,≤ 100
2,O=C1CN(Cc2coc(-c3cccc(F)c3)n2)Cc2cc(C(=O)NO)ccc2N1,≤ 100
3,O=C1CN(Cc2cccc(Oc3ccccc3)c2)Cc2cc(C(=O)NO)ccc2N1,100 to 500
4,"CC(C)CN1Cc2ccc(C(=O)NO)cc2OC[C@@H]1C [(S)-N-hydroxy-4-isobutyl-3-methyl-2,3,4,5-tetrahydrobenzo[f][1,4]oxazepine-8-carboxamide]",≤ 100
5,CC(C)N1CCC(CN2CC(=O)Nc3ccc(C(=O)NO)cc3C2)CC1,> 500
6,O=C(NO)c1ccc2c(c1)OCCN(c1nc3ccccc3s1)C2,100 to 500
7,"CC(C)[C@H]1COc2cc(C(=O)NO)ccc2CN1c1ccccn1 [(S)-N-hydroxy-3-isopropyl-4-(pyridin-2-yl)-2,3,4,5-tetrahydrobenzo[f][1,4]oxazepine-8-carboxamide]",≤ 100
8,"COC[C@@H]1CN(C(=O)Nc2ccc(OC)cc2)Cc2ccc(C(=O)NO)cc2O1 [(S)-N8-hydroxy-2-(methoxymethyl)-N4-(4-methoxyphenyl)-2,3-dihydrobenzo[f][1,4]oxazepine-4,8(5H)-dicarboxamide]",100 to 500
9,O=C(NO)c1ccc2c(c1)OCCN(c1ccc(Cl)c(Cl)c1)C2,100 to 500
10,"COC[C@H]1COc2cc(C(=O)NO)ccc2CN1c1ccccc1 [(S)-N-hydroxy-3-(methoxymethyl)-4-phenyl-2,3,4,5-tetrahydrobenzo[f][1,4]oxazepine-8-carboxamide]",≤ 100
11,"C[C@@H]1COc2cc(C(=O)NO)ccc2CN1 [(R)—N-hydroxy-3-methyl-2,3,4,5-tetrahydrobenzo[f][1,4]oxazepine-8-carboxamide]",100 to 500
12,"CN1CCN(C(=O)N2CCOc3cc(C(=O)NO)ccc3C2)CC1 [N-hydroxy-4-(4-methylpiperazine-1-carbonyl)-2,3,4,5-tetrahydrobenzo[f][1,4]oxazepine-8-carboxamide]",> 500
13,"C[C@H]1COc2cc(C(=O)NO)ccc2CN1 [(S)—N-hydroxy-3-methyl-2,3,4,5-tetrahydrobenzo[f][1,4]oxazepine-8-carboxamide]",100 to 500
14,"CC[C@H]1COc2cc(C(=O)NO)ccc2CN1C [(S)-3-ethyl-N-hydroxy-4-methyl-2,3,4,5-tetrahydrobenzo[f][1,4]oxazepine-8-carboxamide]",≤ 100
15,O=C1CN(Cc2cccc3ccccc23)Cc2cc(C(=O)NO)ccc2N1,≤ 100
16,"C[C@H]1COc2cc(C(=O)NO)ccc2CN1C(=O)N1CCCC1 [(S)-N-hydroxy-3-methyl-4-(pyrrolidine-1-carbonyl)-2,3,4,5-tetrahydrobenzo[f][1,4]oxazepine-8-carboxamide]",≤ 100
17,CN(C)Cc1cccc(CN2CC(=O)Nc3ccc(C(=O)NO)cc3C2)c1,> 500
18,COc1ccc(CCN2CCOc3ccc(C(=O)NO)cc3C2)cc1,> 500
19,COc1ccc(CN2Cc3ccc(C(=O)NO)cc3OC[C@@H]2C(C)C)cc1,≤ 100
20,"C[C@H]1COc2cc(C(=O)NO)ccc2CN1C(=O)Oc1ccc(F)cc1 [4-fluorophenyl(S)-8-(hydroxycarbamoyl)-3-methyl-2,3-dihydrobenzo[f][1,4]oxazepine-4(5H)-carboxylate]",≤ 100
21,"C[C@H]1COc2cc(C(=O)NO)ccc2CN1C(=O)OC1CCOCC1 [tetrahydro-2H-pyran-4-yl(S)-8-(hydroxycarbamoyl)-3-methyl-2,3-dihydrobenzo[f][1,4]oxazepine-4(5H)-carboxylate]",≤ 100
22,"CC1CCCCN1C(=O)N1Cc2ccc(C(=O)NO)cc2OC[C@@H]1C (stereo partly drawn) [(3S)-N-hydroxy-3-methyl-4-(2-methylpiperidine-1-carbonyl)-2,3,4,5-tetrahydrobenzo[f][1,4]oxazepine-8-carboxamide]",≤ 100
23,CC(C)[C@@H]1COc2cc(C(=O)NO)ccc2CN1C,≤ 100
24,"O=C(NO)c1ccc2c(c1)OCCN(c1ccccn1)C2 [N-hydroxy-4-(pyridin-2-yl)-2,3,4,5-tetrahydrobenzo[f][1,4]oxazepine-8-carboxamide]",100 to 500
25,"O=C(NO)c1ccc2c(c1)OC[C@H](Cc1ccccc1)N(C(=O)N1CCOCC1)C2 [(S)-3-benzyl-N-hydroxy-4-(morpholine-4-carbonyl)-2,3,4,5-tetrahydrobenzo[f][1,4]oxazepine-8-carboxamide]",≤ 100

# Further lines, results first:
row,IC50 [nM],Structure (SMILES)
1,≤ 100,"COC[C@@H]1COc2cc(C(=O)NO)ccc2CN1c1ccccc1C [(R)-N-hydroxy-3-(methoxymethyl)-4-(o-tolyl)-2,3,4,5-tetrahydrobenzo[f][1,4]oxazepine-8-carboxamide]"
2,100 to 500,O=C1CN(Cc2ccccc2Cl)Cc2cc(C(=O)NO)ccc2N1
3,≤ 100,COc1ccc(NC(=O)N2Cc3ccc(C(=O)NO)cc3O[C@@H](C)C2)cc1
4,> 500,COc1ccc(S(=O)(=O)N2CC(=O)Nc3ccc(C(=O)NO)cc3C2)cc1
5,≤ 100,COc1ccc(NC(=O)N2Cc3ccc(C(=O)NO)cc3OC[C@@H]2C(C)C)cc1
6,≤ 100,O=C1CN(Cc2ccc(-n3cccc3)cc2)Cc2cc(C(=O)NO)ccc2N1
7,≤ 100,O=C(NO)c1ccc2c(c1)OCCN(c1nc3ccccc3o1)C2
8,≤ 100,"C[C@H]1COc2cc(C(=O)NO)ccc2CN1C(=O)Nc1ccccn1 [(S)-N8-hydroxy-3-methyl-N4-(pyridin-2-yl)-2,3-dihydrobenzo[f][1,4]oxazepine-4,8(5H)-dicarboxamide]"
9,≤ 100,"C[C@H]1COc2cc(C(=O)NO)ccc2CN1c1cccc(F)c1 [(S)-4-(3-fluorophenyl)-N-hydroxy-3-methyl-2,3,4,5-tetrahydrobenzo[f][1,4]oxazepine-8-carboxamide]"
10,100 to 500,"O=C1CN(C(=O)N2CCCCC2)Cc2cc(C(=O)NO)ccc2N1 [N-hydroxy-2-oxo-4-(piperidine-1-carbonyl)-2,3,4,5-tetrahydro-1H-benzo[e][1,4]diazepine-7-carboxamide]"
11,100 to 500,"C[C@H]1COc2cc(C(=O)NO)ccc2CN1C [(S)—N-hydroxy-3,4-dimethyl-2,3,4,5-tetrahydrobenzo[f][1,4]oxazepine-8-carboxamide]"
12,≤ 100,"C[C@H]1COc2cc(C(=O)NO)ccc2CN1C(=O)OC1CCC1 [cyclobutyl(S)-8-(hydroxycarbamoyl)-3-methyl-2,3-dihydrobenzo[f][1,4]oxazepine-4(5H)-carboxylate]"
13,100 to 500,"COC[C@H]1CN(C(=O)Nc2ccc(OC)cc2)Cc2ccc(C(=O)NO)cc2O1 [(R)-N8-hydroxy-2-(methoxymethyl)-N4-(4-methoxyphenyl)-2,3-dihydrobenzo[f][1,4]oxazepine-4,8(5H)-dicarboxamide]"
14,100 to 500,"COCCCN1Cc2ccc(C(=O)NO)cc2OC[C@@H]1C [(S)-N-hydroxy-4-(3-methoxypropyl)-3-methyl-2,3,4,5-tetrahydrobenzo[f][1,4]oxazepine-8-carboxamide]"
15,≤ 100,"C[C@H]1COc2cc(C(=O)NO)ccc2CN1CCC1CCCO1 (stereo partly drawn) [(3S)-N-hydroxy-3-methyl-4-(2-(tetrahydrofuran-2-yl)ethyl)-2,3,4,5-tetrahydrobenzo[f][1,4]oxazepine-8-carboxamide]"
16,≤ 100,"C[C@H]1COc2cc(C(=O)NO)ccc2CN1C(=O)NC1CCCCC1 [(S)-N4-cyclohexyl-N8-hydroxy-3-methyl-2,3-dihydrobenzo[f][1,4]oxazepine-4,8(5H)-dicarboxamide]"
17,≤ 100,"CC[C@H]1COc2cc(C(=O)NO)ccc2CN1c1ccccc1 [(S)-3-ethyl-N-hydroxy-4-phenyl-2,3,4,5-tetrahydrobenzo[f][1,4]oxazepine-8-carboxamide]"
18,≤ 100,"CC1COCCN1C(=O)N1Cc2ccc(C(=O)NO)cc2OC[C@@H]1C (stereo partly drawn) [(3S)-N-hydroxy-3-methyl-4-(3-methylmorpholine-4-carbonyl)-2,3,4,5-tetrahydrobenzo[f][1,4]oxazepine-8-carboxamide]"
19,100 to 500,O=C1CN(Cc2ccncc2)Cc2cc(C(=O)NO)ccc2N1
20,≤ 100,CC(C)Oc1ccc(CN2CC(=O)Nc3ccc(C(=O)NO)cc3C2)cc1
21,≤ 100,COc1ccc(CN2Cc3ccc(C(=O)NO)cc3OC[C@H]2C(C)C)cc1
22,≤ 100,COc1ccc(NC(=O)N2Cc3ccc(C(=O)NO)cc3OC[C@@H]2C)cc1
23,100 to 500,"O=C(NO)c1ccc2c(c1)OCCN(c1cccnc1)C2 [N-hydroxy-4-(pyridin-3-yl)-2,3,4,5-tetrahydrobenzo[f][1,4]oxazepine-8-carboxamide]"
24,≤ 100,O=C(NO)c1ccc2c(c1)OCCN(c1nc3ccccc3[nH]1)C2
